# Laboratory results as given in patent US6809208B2, “3-Arylbenzofuranones with electron-withdrawing substituents as stabilizers” (Ciba Specialty Chemicals Corporation, priority 2000, dated 2004).
# How the values were obtained:
# [1] = Light-colored SBR-vulcanisate (Example 22): ΔL-color after 3 weeks in diffuse daylight; details: 1.0 phr stabilizer; 3 weeks at room temperature in diffuse daylight; scale 0 to 100, 100 = no discoloration; without stabilizer 94
# Procedure: (§1) 100 parts by weight of Cariflex®S-1502 (styrene/butadiene rubber, Shell) are processed at 60° C., in a mixing mill, with 30.0 parts by weight of Kronos®CL 220 [titanium dioxide (pigment), Kronos Titan GmbH], 30.0 parts by weight of Aktisil®MM [kaolin (filler), Hoffmann Mineral, Neuburg/Donau], 5.0 parts by weight of Naftolen®N 401 [plasticizer, Metallgesellschaft], 10.0 parts by weight of zinc oxide [vulcanization activator], 2.0 parts by weight of stearic acid [vulcanization activator], 2.0 parts by weight of sulfur [vulcanizing agent], 1.0 part by weight of Vulkacit®MOZ [vulcanisation accelerator, Bayer], 0.25 part by weight of Vulkacit®Thiuram [vulcanization accelerator, Bayer] and 1.0 part by weight of the stabilizer to be tested according to Table 24, to form a homogeneous mixture, the vulcanization system (sulfur, Vulkacit®MOZ and Vulkacit®Thiuram) not being added until the end of the mixing process. The mixture is vulcanized in electrical vulcanization presses at 150° C. until T95 is reached in the rheometer curves to form elastomer plates 2 mm thick, 21 cm long and 8.0 cm wide.
# (§2) The remaining elastomer plates are stored for 3 weeks at room temperature in a standard laboratory atmosphere in diffuse daylight. The ΔL-color of those plates is then determined according to DIN 6167, which corresponds to a scale of from 0 to 100. No discoloration is indicated by a value of 100.
# [2] = Light-colored SBR-vulcanisate, ozone atmosphere for 96 hours: crack formation; set-up: key: grade 0: Grade 0 denotes no cracks; grade 1 denotes narrow flat cracks; grade 2 denotes moderately broad, moderately deep cracks, clearly visible; grade 3 denotes broad and deep cracks; details: 2.0 phr stabilizer, ozone 50 pphm, 40° C., dynamic elongation, without stabilizer grade 2
# Procedure: as §1, with “[plasticiser,” for “[plasticizer,”, “[vulcanization” for “[vulcanisation”, “[…],” for “Bayer] and 1.0 part by weight of the stabilizer to be tested according to Table 24,”
# Some of the elastomer plates so obtained are tested for the action of ozone according to the ASTM standard D 3395-86 while subject to dynamic elongation. In this test the plates are first stored for 30 days in a standard atmosphere [23/50 SN-ISO 291]. Test specimens measuring 20 cm by 1 cm are then punched out and exposed to an ozone atmosphere for 96 hours (ozone content: 50 pphm; temperature: 40° C.; humidity: 50% rel.; elongation: 0 to 25%; elongation rate: 0.5 Hz; number of load cycles: approximately 173 000). The test plates are then assessed for crack formation according to ASTM D 3395-86. Grade 0 denotes no cracks; grade 1 denotes narrow flat cracks; grade 2 denotes moderately broad, moderately deep cracks, clearly visible; grade 3 denotes broad and deep cracks. The lower the grade number, the better the stabilization of the elastomer plates.
# [3] = Light-colored SBR-vulcanisate (Example 23): ΔL-color after 3 weeks in diffuse daylight; details: 2.0 phr stabilizer; 3 weeks at room temperature in diffuse daylight; scale 0 to 100, 100 = no discoloration; without stabilizer 97
# Procedure: as §1, with “[plasticiser,” for “[plasticizer,”, “[vulcanization” for “[vulcanisation”, “[…],” for “Bayer] and 1.0 part by weight of the stabilizer to be tested according to Table 24,”
# as §2
# [4] = Light-colored SBR-vulcanisate, ozone atmosphere for 48 hours: crack formation; set-up: key: grade 0: Grade 0 denotes no cracks; grade 1 denotes narrow flat cracks; grade 2 denotes moderately broad, moderately deep cracks, clearly visible; grade 3 denotes broad and deep cracks; details: 1.0 phr stabilizer, ozone 50 pphm, 40° C., dynamic elongation, without stabilizer grade 1-2
# Procedure: as §1
# Some of the elastomer plates so obtained are tested for the action of ozone according to the ASTM standard D 3395-86 while subject to dynamic elongation. […] The test plates are then assessed for crack formation according to ASTM D 3395-86. […]
# [5] = Discoloration of powder coatings based on a carboxy-functional polyester cured in electric and gas ovens; details: total 0.60% stabilizers rel. to components 1 to 5
# Procedure: To prepare the powder coating composition based on a carboxy-functional polyester, components 1 to 6 (formulation without additives) or components 1 to 7 (formulation containing the stabilizers) are employed in the sequence indicated (cf. Table 13).
# The components weighed out in this way are mixed using a planetary stirrer. The mixture is then extruded on a prism extruder at 300 revolutions/minute and at 100° C. and is rolled out. The powder coating composition is coarsely comminuted using a bench cutter and is ground in a Retsch ZM-1 ultracentrifugal mill with a 0.75 mm annular-perforation screen at 15,000 revolutions/minute. Finally, the powder is passed through a 30 μm screen on a centrifugal screening machine.
# The finished powder coating composition is sprayed electrostatically to a coat thickness of 70 μm onto aluminium panels using an ESB-Wagner corona cup gun at 60 kV. Some of the coated panels are cured at 180° C. for 90 minutes in an electric oven. The remaining coated panels are cured at 180° C. for 45 minutes in a gas oven with an NO2 content of 20 ppm. The yellowness index (YI) of the samples is determined in accordance with ASTM D 1925-70. Low YI values denote little discoloration, high YI values denote severe discoloration of the samples.
# [6] = Stabilization of multiple-extruded polypropylene; details: 0.05% of compound; heating zones 260, 270, 280° C.; measured at 230° C./2.16 kg; without compound 17.5
# Procedure: 1.3 kg of polypropylene powder (Profax 6501), which has been prestabilized with 0.025% of Irganox®1076 (n-octadecyl 3-[3,5-di-tert-butyl-4-hydroxyphenyl]propionate) (melt index 3.2 g/10 min, measured at 230° C./2.16 kg) are blended with 0.05% of Irganox®1010 (pentaerythritol tetrakis[3-(3,5-di-tert-butyl-4-hydroxyphenyl)propionate]), 0.05% of calcium stearate, 0.03% of DHT 4A® (Kyowa Chemical Industry Co., Ltd., [Mg4.5Al2(OH)13CO3.3.5H2O]) and 0.05% of compound of Table 4. This blend is then extruded in an extruder having a cylinder diameter of 20 mm and a length of 400 mm at 100 rpm, the 3 heating zones being adjusted to the following temperatures: 260, 270, 280° C. The extrudate is cooled by drawing it through a water bath and is then granulated. This granulate is repeatedly extruded. After 3 extrusions, the melt index is measured (at 230° C./2.16 kg). A substantial increase in the melt index denotes pronounced chain degradation, i.e. poor stabilization.
# [7] = Stabilization of polyethylene during processing (Brabender plastograph); details: 0.05 part compound and 0.05 part Irganox 1010 per 100 parts polyethylene; 220° C., 50 rpm; without compound 9.7
# Procedure: 100 parts of polyethylene powder (Lupolen®5260 Z) are blended with 0.05 part of Irganox®1010 (pentaerythritol tetrakis[3-(3,5-di-tert-butyl-4-hydroxyphenyl)propionate]) and 0.05 part of a compound of Table 5 and the blend is kneaded in a Brabender plastograph at 220° C. and 50 rpm. During this time the kneading resistance is recorded continuously as torque. In the course of the kneading time the polymer begins to crosslink after prolonged constancy, as can be determined by the rapid increase in torque. The time taken until a marked increase in torque is shown in Table 5 as a measure of the stabilizing action. The longer this time is the better the stabilizing action.
# [8] = Stabilization of polycarbonate (yellowness index of extruded granulate); details: 0.05% stabilizer; granulate after extrusion at a maximum of 280° C.; without stabilizer 10.3
# Procedure: 1.0 kg of a polycarbonate powder which has been dried for 8 hours at 120° C. in a vacuum drying oven (Lexan®145, of General Electric) is charged with the stabilizers listed in Table 22 and is then mixed for 2 minutes in a Henschel mixer. This mixture is then extruded in a Schwabenthan extruder at a maximum of 280° C. The polymer string is then granulated. The granulate so obtained is packed into 1 cm thick polystyrene boxes and the yellowness index (YI) is determined according to ASTM D 1925-70. Low YI values denote little discoloration, high YI values high discoloration of the samples. […]
# [9] = Stabilization of polycarbonate (oven ageing at 135° C., yellowness index and transmission); details: 0.05% stabilizer
# Procedure: This mixture is then extruded in a Schwabenthan extruder at a maximum of 280° C. The polymer string is then granulated. Using an injection moulding machine, plates having a layer thickness of 2 mm are then moulded from the granulate so obtained at a maximum of 300° C. […] Low YI values denote little discoloration, high YI values high discoloration of the patterns. […] The results are compiled in Tables 17 and 18.
# [10] = Stabilization of multiple-extruded polypropylene at high temperature; set-up: unit not given here; details: stabilizer 0.100% by weight, measured at 230° C./2.16 kg
# Procedure: This blend is then extruded in an extruder having a cylinder diameter of 20 mm and a length of 400 mm at 100 rpm, the 3 heating zones being adjusted to the following temperatures: 280, 320, 340° C. The extrudate is cooled by drawing it through a water bath and is then granulated. This granulate is repeatedly extruded. […] A substantial increase in the melt index denotes pronounced chain degradation, i.e. poor stabilization.
# [11] = Stabilization of polycarbonate (time at 135° C. until YI = 20); details: 0.05% stabilizer; without stabilizer 1560
# Procedure: 1.0 kg of a polycarbonate powder which has been dried for 8 hours at 120° C. in a vacuum drying oven (Lexan®145, of General Electric) is charged with the stabilizers listed in Table 19 and is mixed for 2 minutes in a Henschel mixer. This mixture is then extruded in a Schwabenthan extruder at a maximum of 280° C. The polymer string is then granulated. Using an injection moulding machine, plates having a layer thickness of 2 mm are then moulded from the granulate so obtained at a maximum of 300° C. These plates are then aged in a circulating air oven at 135° C., the time in hours until the yellowness index (YI) reaches a value of 20 according to ASTM D 1925-70 being measured. […]
smiles,measurement,setting,value
CC(C)(C)c1cc2c(c(C(C)(C)C)c1)OC(=O)C2c1cc(C#N)cc(C#N)c1 (stereo not drawn) [Compound (108)],ΔL-color according to DIN 6167,[1],96
same,Crack formation according to ASTM D 3395-86,[2],grade 1
same,ΔL-color according to DIN 6167,[3],95
same,Crack formation according to ASTM D 3395-86,[4],grade 0-1
"CCCCCCCCOC(=O)c1ccc(C2C(=O)Oc3c2cc(C(C)(C)C)cc3C(C)(C)C)cc1 (stereo not drawn) [Compound (110), 5,7-di-tert-butyl-3-(4-n-octyloxycarbonylphenyl)-3H-benzofuran-2-one]",Yellowness index after 90 minutes (ASTM D 1925-70),"[5]; Curing for 45 minutes in a gas oven at 180° C., NO2 content 20 ppm, without stabilizer 4.2",3.4
same,Yellowness index after 90 minutes (ASTM D 1925-70),"[5]; Curing for 90 minutes in an electric oven at 180° C., without stabilizer 3.1",2.7
same,Melt index after 3 extrusions,[6],4.7
same,Time until increase in torque,[7],27.5 min
Cc1cc(OP(Oc2cc(C)c(C(C)(C)C)cc2C(C)(C)C)c2ccc(-c3ccc(P(Oc4cc(C)c(C(C)(C)C)cc4C(C)(C)C)Oc4cc(C)c(C(C)(C)C)cc4C(C)(C)C)cc3)cc2)c(C(C)(C)C)cc1C(C)(C)C [GSY ®P101],Yellowness index,[8],5.1
"CC(C)(C)c1ccc(OP(Oc2ccc(C(C)(C)C)cc2C(C)(C)C)Oc2ccc(C(C)(C)C)cc2C(C)(C)C)c(C(C)(C)C)c1 [Irgafos ®168, tris(2,4-di-tert-butylphenyl)phosphite, reference compound]",Yellowness index prior to oven-ageing,"[9]; 2 mm plates, ASTM D 1925-70",3.4
same,Transmission in % prior to oven-aging,[9]; at 450 nm,84.7%
same,Transmission in % after 2000 hours at 135° C.,"[9]; at 450 nm, without stabilizer 76.4",77.8%
same,Yellowness index after 2000 hours at 135° C.,"[9]; circulating air oven, without stabilizer 25.0",23.5
same,Melt index after 5 extrusions,[10]; 280° C.,9.7
same,Melt index after 5 extrusions,[10]; 320° C.,43.8
same,Melt index after 5 extrusions,[10]; 340° C.,80.1
same,Time in hours at 135° C. to YI = 20,[11],2000 h
"CC(C)Nc1ccc(Nc2ccccc2)cc1 [Vulkanox ® 4010, 4-isopropylamino-diphenylamine, reference compound]",ΔL-color according to DIN 6167,[1],70
same,Crack formation according to ASTM D 3395-86,[2],grade 0
same,ΔL-color according to DIN 6167,[3],56
same,Crack formation according to ASTM D 3395-86,[4],grade 0
